Laboratory results taken from PubChem BioAssay AID434933 (The Scripps Research Institute Molecular Screening Center, 2010).
Values joined by “and” are separate entries in the source; they are usually repeats but may differ in a detail not shown here. Equal entries are not always repeated. Active and inactive are the calls of the source.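 How the source made its calls: active means compound with HepG2 cell viability IC50 of 10 micromolar or lower; inactive means IC50 above 10 micromolar.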

Each compound was assayed on HepG2 viability, CellTiter-Glo ATP luminescence (assay: cytotoxicity in HepG2 cells, late-stage follow-up, cytotoxicity control for TPT1 inhibitor project, cell-based, luminescence, dose response (AID 434933)).

With `Cc1cc(C)n(Cc2ccc(C(=O)NN=Cc3ccc(-c4ccc([N+](=O)[O-])cc4)o3)o2)n1` as the compound, how does the IC50 read?
Its IC50 is 72.7 µM (inactive).

With `CC1=C(C#N)C(=O)N(C2CCS(=O)(=O)C2)C(=O)/C1=C\c1ccco1` (stereo not given) as the compound, how does the IC50 read?
Its IC50 is > 79.4 µM (inactive).

For `NC(=O)c1cc[n+](CC2=C(C(=O)O)N3C(=O)[C@@H](NC(=O)C(c4ccccc4)S(=O)(=O)O)[C@H]3SC2)cc1` (stereo not given in full), which IC50 is on record?
The IC50 was > 79.4 µM (inactive).

Which IC50 does the source give for `Cc1[nH]n(-c2ccc(S(=O)(=O)O)cc2)c(=O)c1N[N-]c1ccc(C2=CC(=O)/C(=N\[N-]c3ccc4c(S(=O)(=O)O)cc(S(=O)(=O)O)c(N)c4c3O)C=C2)cc1O.[Cu+].[Cu+]` here?
The IC50 was 53.6 µM (inactive).

With `COc1ccc(OC)c(N2C(=O)/C(=C/c3ccco3)C(=O)NC2=S)c1` as the compound, how does the IC50 read?
Its IC50 is > 79.4 µM (inactive).

`OC(Cn1cncn1)(Cn1cncn1)c1ccc(F)cc1F` was tested. Which IC50 did it give?
Its IC50 is > 79.4 µM (inactive).

`Cc1ccccc1N1C(=O)/C(=C/c2ccco2)C(=O)NC1=S` was tested. Which IC50 did it give?
The IC50 was > 79.4 µM (inactive) and 36.6 µM (inactive).

With `NS(=O)(=O)c1cc(C(=O)NC2CCSc3ccccc32)ccc1Cl` (stereo not given) as the compound, how does the IC50 read?
Its IC50 is > 79.4 µM (inactive).

How did the IC50 turn out when `O=c1oc2c(O)c(O)cc3c(=O)oc4c(O)c(O)cc1c4c23` was run?
Its IC50 is > 79.4 µM (inactive).

With `Cc1ccc(N2C(=O)NC(=O)/C(=C\c3ccc([N+](=O)[O-])o3)C2=O)cc1` as the compound, how does the IC50 read?
The IC50 was 53.5 µM (inactive).
